System: NCI60 cell lines
Test: NCI60 cell line panel
Type: cell-based, human
Description: The Developmental Therapeutics Program (DTP) of NCI has evaluated more than 100,000 pure compounds and more than 34,000 crude extracts against the panel of human tumor cell lines. The resultant data are analyzed using a program called COMPARE, that rank the entire database of tested compounds in the order of the similarity of the responses. […] Thus, the NCI60 databases is highly useful to the cancer research community. Further experiments were conducted that tested some of the active compounds in a panel of NCI60 cell line to relate our compounds with some known inhibitors to have an idea of possible mechanism of action.
In order to understand the selectivity of these compounds in different cancer types, some of them were tested against a panel of 60 cell lines (Table XXXIX).

[1] = Non-Small Cell Lung Cancer, A549/ATCC
[2] = Non-Small Cell Lung Cancer, EKVX
[3] = Non-Small Cell Lung Cancer, HOP-62
[4] = Non-Small Cell Lung Cancer, HOP-92
[5] = Non-Small Cell Lung Cancer, NCI-H23
[6] = Non-Small Cell Lung Cancer, NCI-H226
[7] = Non-Small Cell Lung Cancer, NCI-H322M
[8] = Non-Small Cell Lung Cancer, NCI-H460
[9] = Non-Small Cell Lung Cancer, NCI-H522

## CCN(CC)CCCC(C)Nc1cnc(C(=O)Nc2cccc3ccc(OC)nc23)cn1 (stereo not shown) [J11, 5-((5-(diethylamino)pentan-2-yl)amino)-N-(2-methoxyquinolin-8-yl)pyrazine-2-carboxamide]
Breast Cancer, BT-549
  GIPRCNT: % Growth inhibition: 83.22%
Breast Cancer, HS 578T
  GIPRCNT: % Growth inhibition: 69.51%
Breast Cancer, MCF7
  GIPRCNT: % Growth inhibition: 20.06%
Breast Cancer, MDA-MB-231/ATCC
  GIPRCNT: % Growth inhibition: 71.85%
Breast Cancer, MDA-MB-468
  GIPRCNT: % Growth inhibition: 79.15%
Breast Cancer, T-47D
  GIPRCNT: % Growth inhibition: 83.88%
CNS Cancer, SF-268
  GIPRCNT: % Growth inhibition: 63.03%
CNS Cancer, SF-295
  GIPRCNT: % Growth inhibition: 100.8191%
CNS Cancer, SF-539
  GIPRCNT: % Growth inhibition: 0.4567%
CNS Cancer, SNB-19
  GIPRCNT: % Growth inhibition: 94.85%
CNS Cancer, SNB-75
  GIPRCNT: % Growth inhibition: 75.89%
CNS Cancer, U251
  GIPRCNT: % Growth inhibition: 56.1223%
Colon Cancer, COLO 205
  GIPRCNT: % Growth inhibition: 71.37%
Colon Cancer, HCC-2998
  GIPRCNT: % Growth inhibition: 90.92%
Colon Cancer, HCT-15
  GIPRCNT: % Growth inhibition: −25.625%
Colon Cancer, HCT-116
  GIPRCNT: % Growth inhibition: −36.0085%
Colon Cancer, HT29
  GIPRCNT: % Growth inhibition: −47.1759%
Colon Cancer, KM12
  GIPRCNT: % Growth inhibition: 36.32%
Colon Cancer, SW-620
  GIPRCNT: % Growth inhibition: 2.118%
Leukemia, CCRF-CEM
  GIPRCNT: % Growth inhibition: −7.649%
Leukemia, HL-60(TB)
  GIPRCNT: % Growth inhibition: 72.3913%
Leukemia, K-562
  GIPRCNT: % Growth inhibition: −57.0747%
Leukemia, MOLT-4
  GIPRCNT: % Growth inhibition: 53.43%
Leukemia, RPMI-8226
  GIPRCNT: % Growth inhibition: 23.8%
Leukemia, SR
  GIPRCNT: % Growth inhibition: −5.71%
Melanoma, LOX IMVI
  GIPRCNT: % Growth inhibition: −89.8952%
Melanoma, M14
  GIPRCNT: % Growth inhibition: −75.6475%
Melanoma, MALME-3M
  GIPRCNT: % Growth inhibition: −69.7804%
Melanoma, MDA-MB-435
  GIPRCNT: % Growth inhibition: −58.2282%
Melanoma, SK-MEL-2
  GIPRCNT: % Growth inhibition: 70.47%
Melanoma, SK-MEL-5
  GIPRCNT: % Growth inhibition: 5.402%
Melanoma, UACC-62
  GIPRCNT: % Growth inhibition: −57.758%
Melanoma, UACC-257
  GIPRCNT: % Growth inhibition: −39.0086%
[1]
  GIPRCNT: % Growth inhibition: 81.18%
[2]
  GIPRCNT: % Growth inhibition: 104.0141%
[3]
  GIPRCNT: % Growth inhibition: 94.18%
[4]
  GIPRCNT: % Growth inhibition: 49.4978%
[5]
  GIPRCNT: % Growth inhibition: 96.1%
[6]
  GIPRCNT: % Growth inhibition: 61.44%
[7]
  GIPRCNT: % Growth inhibition: 75.47%
[8]
  GIPRCNT: % Growth inhibition: 1.048%
[9]
  GIPRCNT: % Growth inhibition: 5.069%
Ovarian Cancer, IGROV1
  GIPRCNT: % Growth inhibition: 78.33%
Ovarian Cancer, NCI/ADR-RES
  GIPRCNT: % Growth inhibition: 76.12%
Ovarian Cancer, OVCAR-3
  GIPRCNT: % Growth inhibition: −30.7372%
Ovarian Cancer, OVCAR-4
  GIPRCNT: % Growth inhibition: 98.13%
Ovarian Cancer, OVCAR-5
  GIPRCNT: % Growth inhibition: 91.29%
Ovarian Cancer, OVCAR-8
  GIPRCNT: % Growth inhibition: 68.24%
Ovarian Cancer, SK-OV-3
  GIPRCNT: % Growth inhibition: 86.95%
Prostate Cancer, DU-145
  GIPRCNT: % Growth inhibition: 78.79%
Prostate Cancer, PC-3
  GIPRCNT: % Growth inhibition: 69.52%
Renal Cancer, 786-0
  GIPRCNT: % Growth inhibition: 73.41%
Renal Cancer, A498
  GIPRCNT: % Growth inhibition: 46.17%
Renal Cancer, ACHN
  GIPRCNT: % Growth inhibition: −86.4619%
Renal Cancer, CAKI-1
  GIPRCNT: % Growth inhibition: 94.69%
Renal Cancer, RXF 393
  GIPRCNT: % Growth inhibition: 45.96%
Renal Cancer, SN12C
  GIPRCNT: % Growth inhibition: 78.47%
Renal Cancer, TK-10
  GIPRCNT: % Growth inhibition: 90.98%
Renal Cancer, UO-31
  GIPRCNT: % Growth inhibition: 69.07%

## CCN(CC)CCCC(C)Nc1cnc(C(=O)Nc2cc(F)cc3cccnc23)cn1 (stereo not shown) [J17, 5-((5-(diethylamino)pentan-2-yl)amino)-N-(6-fluoroquinolin-8-yl)pyrazine-2-carboxamide]
Breast Cancer, BT-549
  GIPRCNT: % Growth inhibition: 77.38%
Breast Cancer, HS 578T
  GIPRCNT: % Growth inhibition: 69.28%
Breast Cancer, MCF7
  GIPRCNT: % Growth inhibition: 2.311%
Breast Cancer, MDA-MB-231/ATCC
  GIPRCNT: % Growth inhibition: 59.42%
Breast Cancer, MDA-MB-468
  GIPRCNT: % Growth inhibition: 6.238%
Breast Cancer, T-47D
  GIPRCNT: % Growth inhibition: 14.34%
CNS Cancer, SF-268
  GIPRCNT: % Growth inhibition: 51.93%
CNS Cancer, SF-295
  GIPRCNT: % Growth inhibition: 71.23%
CNS Cancer, SF-539
  GIPRCNT: % Growth inhibition: 83.12%
CNS Cancer, SNB-19
  GIPRCNT: % Growth inhibition: 83.09%
CNS Cancer, SNB-75
  GIPRCNT: % Growth inhibition: 65.6595%
CNS Cancer, U251
  GIPRCNT: % Growth inhibition: 50.2764%
Colon Cancer, COLO 205
  GIPRCNT: % Growth inhibition: 3.108%
Colon Cancer, HCC-2998
  GIPRCNT: % Growth inhibition: 66.69%
Colon Cancer, HCT-15
  GIPRCNT: % Growth inhibition: 24.5%
Colon Cancer, HCT-116
  GIPRCNT: % Growth inhibition: 9.52%
Colon Cancer, HT29
  GIPRCNT: % Growth inhibition: 11.8%
Colon Cancer, KM12
  GIPRCNT: % Growth inhibition: 75.34%
Colon Cancer, SW-620
  GIPRCNT: % Growth inhibition: 24.3%
Leukemia, CCRF-CEM
  GIPRCNT: % Growth inhibition: 19.66%
Leukemia, HL-60(TB)
  GIPRCNT: % Growth inhibition: 85.54%
Leukemia, K-562
  GIPRCNT: % Growth inhibition: 3.946%
Leukemia, MOLT-4
  GIPRCNT: % Growth inhibition: 21.9615%
Leukemia, RPMI-8226
  GIPRCNT: % Growth inhibition: 75.09%
Leukemia, SR
  GIPRCNT: % Growth inhibition: 2.839%
Melanoma, LOX IMVI
  GIPRCNT: % Growth inhibition: 33.27%
Melanoma, M14
  GIPRCNT: % Growth inhibition: 21.9%
Melanoma, MALME-3M
  GIPRCNT: % Growth inhibition: −8.343%
Melanoma, MDA-MB-435
  GIPRCNT: % Growth inhibition: 25.54%
Melanoma, SK-MEL-2
  GIPRCNT: % Growth inhibition: 96.72%
Melanoma, SK-MEL-5
  GIPRCNT: % Growth inhibition: 69.98%
Melanoma, UACC-62
  GIPRCNT: % Growth inhibition: 0.9972%
Melanoma, UACC-257
  GIPRCNT: % Growth inhibition: 76.77%
[1]
  GIPRCNT: % Growth inhibition: 58.01%
[2]
  GIPRCNT: % Growth inhibition: 73.3%
[3]
  GIPRCNT: % Growth inhibition: 64.08%
[4]
  GIPRCNT: % Growth inhibition: 37.52%
[5]
  GIPRCNT: % Growth inhibition: 81.37%
[6]
  GIPRCNT: % Growth inhibition: 85.09%
[7]
  GIPRCNT: % Growth inhibition: 63.8%
[8]
  GIPRCNT: % Growth inhibition: 69.55%
[9]
  GIPRCNT: % Growth inhibition: 52.69%
Ovarian Cancer, IGROV1
  GIPRCNT: % Growth inhibition: 41.74%
Ovarian Cancer, NCI/ADR-RES
  GIPRCNT: % Growth inhibition: 66.76%
Ovarian Cancer, OVCAR-3
  GIPRCNT: % Growth inhibition: 5.413%
Ovarian Cancer, OVCAR-4
  GIPRCNT: % Growth inhibition: 12.24%
Ovarian Cancer, OVCAR-5
  GIPRCNT: % Growth inhibition: 77.12%
Ovarian Cancer, OVCAR-8
  GIPRCNT: % Growth inhibition: 60.52%
Ovarian Cancer, SK-OV-3
  GIPRCNT: % Growth inhibition: 98.32%
Prostate Cancer, DU-145
  GIPRCNT: % Growth inhibition: 63.3%
Prostate Cancer, PC-3
  GIPRCNT: % Growth inhibition: 60.96%
Renal Cancer, 786-0
  GIPRCNT: % Growth inhibition: 68.3555%
Renal Cancer, A498
  GIPRCNT: % Growth inhibition: 62.97%
Renal Cancer, ACHN
  GIPRCNT: % Growth inhibition: 36.59%
Renal Cancer, CAKI-1
  GIPRCNT: % Growth inhibition: 36.66%
Renal Cancer, RXF 393
  GIPRCNT: % Growth inhibition: 33.77%
Renal Cancer, SN12C
  GIPRCNT: % Growth inhibition: 54.47%
Renal Cancer, TK-10
  GIPRCNT: % Growth inhibition: 63.68%
Renal Cancer, UO-31
  GIPRCNT: % Growth inhibition: 29.1%

From patent publication US20220081412A1, “QUINOLINYL-PYRAZINE-CARBOXAMIDE COMPOUNDS AND USES THEREOF” (The Regents of the University of Michigan, priority 2018, published 2022)
